Like-named read-outs stand apart in the source and are kept apart here.
Tests used:
MDA 435 cells = test: Cell growth inhibition: MTT assay, MDA 435 (ER- breast carcinoma); format: cell-based; details: Homo sapiens, MDA435, read-out: % inhibition of cell growth compared to no drug control
Experimental: ER- breast carcinoma, human (MDA-435) obtained from Dr. Janet Price, MDA Cancer Center, Houston, Tex., were grown in Gibco's RPMI 1640 media supplemented with sodium pyruvate, 10% FBS and 13 ng/mL gentamicin. Cells were incubated at 37° C., 4.5% CO2 and 95.5% humidified air.
1. Cell growth inhibition: MTT Assay
The compounds of formula 1 were tested for ability to inhibit cell growth using the standard MTT assay, a tetrazolium-based assay which measures the viability of cells in culture. Cells were harvested upon reaching 70-80% confluency and pelleted. The cells were then resuspended in medium in which FBS was replaced with Hyclone's Charcoal/Dextran stripped FBS, and seeded (2 mL/well) into 6-well plates (Corning) at a density allowing for linear growth over a four day assay period. Compounds of formula 1 (10 mM stock in dimethylsulfoxide (DMSO)) were added 18-24 hours post-seeding. Compound dilutions were prepared in the appropriate growth media and added to the cells for final concentrations of 10, 3.3 and 1 μM in 0.1% DMSO. At 24, 48 and 72 hr. time points, MTT (3-[4,5-dimethylthiazol-2-yl-2,5-diphenyltetrazolium bromide) stock solution (5mg/mL in 1 PBS) was added to the cells plates (625 μL/well) which were then incubated for 2.5 hours. Liquid was aspirated from the wells and 1 mL/well of 95% ethanol was added to solubilize the formazan reaction product. The plates were shaken (Bellco Mini-Orbital Shaker) for 15 minutes. The solubilized formazan was then transferred (50 μls) into a 96-well plate and the optical densities (OD) were measured (Bio-Tek Microplate Reader) at 570 nm and reference wavelength of 660 nm. Percentage of inhibition of cell growth was calculated according to the following formula: [formula]

ZR-75-1 cells = test: Apoptosis: cell death detection by ELISA, ZR-75-1; format: cell-based, human; details: for fold induction at 1 µM / fold induction at 3.3 µM / fold induction at 10 µM: Homo sapiens, read-out: Fold induction of apoptosis compared to no drug control
Experimental: ER+ breast carcinoma, human (ZR-75-1) obtained from ATCC (CRL 1500), were grown in Gibco's RPMI 1640 media supplemented with sodium pyruvate, 10% FBS and 13 ng/mL gentamicin. Cells were incubated at 37° C., 4.5% CO2 and 95.5% humidified air.
(§1) 2. Apoptosis: Cell death detection by ELISA:
(§2) Compounds of formula 1 were tested for the ability to cause apoptosis as follows:
(§3) Cells and media were collected, cells were pelleted, resuspended in 100 μl lysis buffer (50 mM Tris-Cl (pH=8.0), 20 mM EDTA, 1% NP-40e) and incubated 30 minutes at 4° C. to lyse. Cell debris was spun down and an aliquot (30 μl) of the […] was removed for protein determination and stored at -20° C. An additional 280 μl of lysis buffer, was added, mixed thoroughly and spun down at 14,000 RPM for 10 minutes at 4° C. An aliquot was removed (180 μl) and the sample was stored at -20° C. until testing.
(§4) A commercially available apoptosis detection kit, obtained from Boehringer Mannheim (Cat. No. 1544-674), was used as per the directions provided with the kit (Cell Death Detection ELISA). However, the protocol was modified in that a 1:40 to 1:100 dilution of sample was prepared, rather than the recommended 1:10 dilution, due to the increase in cell number used to prepare the sample extract and the subsequent increase in ELISA reactivity. The assay measures apoptosis by quantifying the amount of nucleosomal fragmentation from the extracts of cells treated with the test compounds (samples). These nucleosomal fragments, generated by the activation of endonucleases, are a known downstream effector of apoptosis. Antihistone antibodies are used to fix any nucleosomal fragments in the sample to the well of the microtiter plates. The sample is then incubated with anti-DNA antibodies conjugated to peroxidase and subsequently incubated with the peroxidase substrate, ABTS. The resulting colorimetric change is measured spectrophotometrically at 405/490nm.
(§5) The total protein content of each sample was determined for the purpose of normalizing the ELISA values to amount of sample loaded. Microplate assay protocol described in the instruction manual, for (Biorad DC Assay, Cat.#500-0116) section 5.2. The protein concentrations were calculated based upon a linear regression curve.
(§6) d) ELISA assay calculations
(§7) Relative ELISA O.D. readings are determined by subtracting the ELISA plate background O.D. value. No drug control O.D. value (lysis buffer only) was subtracted from sample O.D. value. A correction coefficient (CC), based on the sample protein concentration compared to no drug control, was determined to correct the sample O.D. following subtraction of the background O.D. (BCS O.D.). The fold increase over no drug control is calculated and normalized to the total protein concentration of the samples by multiplying against the correction coefficient.
(§8) To determine the fold increase in ELISA O.D., obtain the following O.D. measurements:
(§9) ELISA plate background--lysis buffer only (EPB);
(§10) no drug treated control--cell sample treated with DMSO (NDT);
(§11) drug treated sample--cell sample treated with a compound of formula 1 (DT) Subtract EPB from NDT (NDT-EPB) and DT (DT-EPB). The fold increase of the treated over the control is then (DT-EPB)/(NDT-EPB).
(§12) To determine the total protein concentration of the samples, obtain the total protein concentration in mg/ul calculated using standard linear regression formula (y=mx+b) based on BSA standards. B=ELISA background. Protein concentration (PC)(mg/ml)=(sample absorbance-b)/x.
(§13) Correction coefficient (cc) is (NDT)(PC)/(DT)(PC).
(§14) Determine fold increase of ELISA (FT) normalized to total PC:
(§15) nDT is DT×cc (which is DT O.D. normalized to PC)
(§16) nNDT is NDT×cc (which is NDT O.D. normalized to PC)
(§17) FI normalized to PC is nDT/nNDT.

RKO cells = test: Apoptosis: cell death detection by ELISA, RKO (colorectal carcinoma); format: cell-based, human; details: for fold induction at 1 µM / fold induction at 3.3 µM / fold induction at 10 µM: Homo sapiens, RKO, read-out: Fold induction of apoptosis compared to no drug control
Experimental: Colorectal carcinoma, human (RKO) obtained from Dr. Bernie Vogelstein, were grown in Gibco's Delbecco Minimum Essential media (DMEM), high glucose, supplemented with sodium pyruvate, 10% FBS and 13 ng/mL gentamicin. Cells were incubated at 37° C., 4.5% CO2 and 95.5% humidified air.
as §1, §2, §3, §4, §5, §6, §7, §8, §9, §10, §11, §12, §13, §14, §15, §16, §17

Compound `C/C(=C/C=C/C(C)=C/C(=O)Nc1ccc(O)cc1)c1cc(C(F)(F)F)cc(C(F)(F)F)c1` [N-(4-hydroxyphenyl)-(2E,4E,6Z)-7-[3,5-bis(trifluoromethyl)phenyl]-3,7-dimethyl-2,4,6-heptatrienamide] has an inhibition at 1 µM (MDA 435 cells; 24 hours) of 47%, an inhibition at 3.3 µM (MDA 435 cells; 24 hours) of 78% and an inhibition at 10 µM (MDA 435 cells; 24 hours) of 77%. For the same compound, the inhibition at 1 µM (MDA 435 cells; 48 hours) was 59%, the inhibition at 3.3 µM (MDA 435 cells; 48 hours) was 91% and the inhibition at 10 µM (MDA 435 cells; 48 hours) was 95%. It also gave an inhibition at 1 µM (MDA 435 cells; 72 hours) of 94%, an inhibition at 3.3 µM (MDA 435 cells; 72 hours) of 96% and an inhibition at 10 µM (MDA 435 cells; 72 hours) of 98%. For the same compound, the fold induction at 1 µM (ZR-75-1 cells; ZR-75-1, 24 h, 24 hrs) was 2, the fold induction at 3.3 µM (ZR-75-1 cells; ZR-75-1, 24 h, 24 hrs) was 2 and the fold induction at 10 µM (ZR-75-1 cells; ZR-75-1, 24 h, 24 hrs) was 3. For the same compound, the fold induction at 1 µM (ZR-75-1 cells; ZR-75-1, 48 h, 48 hrs) was 2, the fold induction at 3.3 µM (ZR-75-1 cells; ZR-75-1, 48 h, 48 hrs) was 19 and the fold induction at 10 µM (ZR-75-1 cells; ZR-75-1, 48 h, 48 hrs) was 15. For the same compound, the fold induction at 1 µM (ZR-75-1 cells; ZR-75-1, 72 h, 72 hrs) was 2, the fold induction at 3.3 µM (ZR-75-1 cells; ZR-75-1, 72 h, 72 hrs) was 69 and the fold induction at 10 µM (ZR-75-1 cells; ZR-75-1, 72 h, 72 hrs) was 67. For the same compound, the “Induction of apoptosis (in words)” value (ZR-75-1 cells; after 48 hours) was “induces significant apoptosis”, the fold induction at 1 µM (RKO cells; 24 hrs) was 2 and the fold induction at 3.3 µM (RKO cells; 24 hrs) was 14. For the same compound, the fold induction at 10 µM (RKO cells; 24 hrs) was 21, the fold induction at 1 µM (RKO cells; 48 hrs) was 4 and the fold induction at 3.3 µM (RKO cells; 48 hrs) was 5. It also gave a fold induction at 10 µM (RKO cells; 48 hrs) of 23, a fold induction at 1 µM (RKO cells; 72 hrs) of 1 and a fold induction at 3.3 µM (RKO cells; 72 hrs) of 1. For the same compound, the fold induction at 10 µM (RKO cells; 72 hrs) was 15 and the “Induction of apoptosis (in words)” value (RKO cells; after 24 hours) was “induces significant apoptosis”.
